Laboratory results from patent US8598183B2, “Solid state forms of a potent HCV inhibitor” (Boehringer Ingelheim International GmbH, priority 2010, dated 2013).

Legend:
[1] = target: HCV NS5B RNA-dependent RNA polymerase (Hepatitis C virus genotype 1a, UniProt P27958); details: cited from earlier work
[2] = Solubility of Compound (1) in physiological pH range; thermodynamic solubility; type: physicochemical; details: aqueous buffer, thermodynamic from solid; physiological pH range of 2-6.8
Experimental: Doses of Compound (1) up to 400 to 600 mg per dose may be required to be delivered to obtain exposures necessary for sufficient efficacy in vivo. Based on thermodynamic solubility of Compound (1), solubility of 0.005-0.01 mg/ml is estimated for Compound (1) sodium salt.

[3] = Powder dissolution testing in pH 6.8 buffer, USP Type II Paddle apparatus; type: physicochemical; details: 60 minutes
[4] = Physical and chemical stability under accelerated storage conditions; type: physicochemical
Experimental: The glass transition temperature of the amorphous form of Compound (1) sodium salt is >200° C., which is quite atypical for pharmaceutical active materials and can be considered an unexpected finding.

Sequence of HCV NS5B RNA-dependent RNA polymerase (P27958 2421-3011): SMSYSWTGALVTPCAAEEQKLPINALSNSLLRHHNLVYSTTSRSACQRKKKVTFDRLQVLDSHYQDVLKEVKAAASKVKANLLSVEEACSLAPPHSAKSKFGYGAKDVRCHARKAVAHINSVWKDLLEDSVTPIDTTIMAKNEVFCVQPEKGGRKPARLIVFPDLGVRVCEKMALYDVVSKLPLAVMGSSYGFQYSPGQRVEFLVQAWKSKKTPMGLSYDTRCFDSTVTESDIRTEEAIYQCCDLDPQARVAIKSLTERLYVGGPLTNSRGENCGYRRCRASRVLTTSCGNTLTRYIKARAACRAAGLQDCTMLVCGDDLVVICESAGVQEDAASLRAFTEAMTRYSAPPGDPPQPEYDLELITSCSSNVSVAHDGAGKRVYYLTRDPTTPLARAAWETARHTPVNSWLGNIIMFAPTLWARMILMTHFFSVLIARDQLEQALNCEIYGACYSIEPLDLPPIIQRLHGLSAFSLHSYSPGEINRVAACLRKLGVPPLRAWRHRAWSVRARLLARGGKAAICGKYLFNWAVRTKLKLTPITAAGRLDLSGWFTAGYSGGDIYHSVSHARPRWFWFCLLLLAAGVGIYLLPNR

Compound | inhibition of HCV NS5B RNA-dependent RNA polymerase [1] | solubility [2] | % dissolved (kinetic dissolution) [3] | physical and chemical stability [4]
Cn1c(C2(NC(=O)c3ccc4c(C5CCCC5)c(-c5ncc(Br)cn5)n(C)c4c3)CCC2)nc2ccc(/C=C/C(=O)O)cc21 [Compound (1), (E)-3-[2-(1-{[2-(5-Bromo-pyrimidin-2-yl)-3-cyclopentyl-1-methyl-1H-indole-6-carbonyl]-amino}-cyclobutyl)-3-methyl-3H-benzimidazol-5-yl]-acrylic acid] | selective and potent inhibitor | < 0.2 µg/mL | – | –
Cn1c(C2(NC(=O)c3ccc4c(C5CCCC5)c(-c5ncc(Br)cn5)n(C)c4c3)CCC2)nc2ccc(/C=C/C(=O)[O-])cc21.[Na+] [amorphous Compound (1) sodium salt] | – | – | about 35% | acceptable physical and chemical stability
